For one data set, the system named is U266. The experiment in a line: Drug combination, cell viability by CT-Blue assay, Chou and Talalay Combination Index. The data set is classed as cell-based. Particulars: combination with the named agent.
The subject of data set [1] is peripheral blood mononuclear cells (PBMC). Kind of data set: Cell death in normal peripheral blood mononuclear cells, annexin V positivity and FACS. Particulars: 6.25-50 ug/ml, six hours. The data set is classed as cell-based. On the procedure: Peripheral blood mononuclear cells (PBMC) were isolated from a normal donor. Cells were treated with 6.25, 12.5, 25 and 50 ug/ml for six hours and cell death was measured by annexin V positivity and FACS analysis.
(§1) CD34^+ hematopoietic progenitor cells were isolated from peripheral blood and treated for 2 hrs with integrin interaction inhibitors (12.5 and 50 μg/ml) and then plated in a methylcellulose media supplemented with growth factors supporting myeloid and erythroid colonies. Colonies were counted on day 12 post-plating. […] In addition, we evaluated the toxicity of integrin interaction inhibitors in normal peripheral blood mononuclear cells (PBMC).

The subject of data set [2] is H929 myeloma cells. Kind of data set: MM SCID-Hu in vivo model, tumor burden by circulating Kappa levels (ELISA). Details: species or system mice. Particulars: 8 mg/kg I.P. daily 14 days, every other day day 14-28; p<0.05 ANOVA vs vehicle. The protocol:
(§2) Briefly, 50,000 H929 myeloma cells were engrafted into the bone implant for 10 days prior to initiation of peptide treatment. Following tumor engraftment mice were randomized (0 time point) and injected with 8 mg/kg c-HYD1 or vehicle control (VC) daily (I.P. injections) for 14 days and every other day from day 14-28 at which time treatment stopped. Tumor burden was measured by circulating Kappa levels by ELISA weekly. N=10 mice for vehicle control (VC) and 9 mice for c-HYD1 treated.
as §1

Data set [3] is described as follows: Weight and overt toxicity of mice injected with c-HYD1. The data set is classed as in vivo. On the procedure: as §2
FIG. 42 is a graph showing the effect of cyclized HYD1 (c-HYD1) injection on the weight of mice.

The subject of data set [4] is H929 myeloma cells. The format is cell-based. The settings on record: for bioactivity of cyclic III peptide analogs, in words: SAR discussion of Table 8; for change in activity relative to the inverso peptide L-cINTEGRIN INTERACTION INHIBITORS: alanine scan and analogs, Table 4 legend. The protocol:
H929 cells were treated for 24 hours with varying concentrations of peptide. Cell death was measured by Topro-3 staining and FACS analysis. The IC50 values were obtained from linear regression analysis and an average value was obtained from 3 independent experiments.
Table 4 legend: Structure activity relationship in H929 myeloma cells of cyclic INTEGRIN INTERACTION INHIBITORS derivatives. The minimal bioactive core sequence of INTEGRIN INTERACTION INHIBITORS WSVVM (SEQ ID NO:85) was cyclized using 2 novel reduced amide bond beta turn promoters and KLKLK (SEQ ID NO:27) as the non-recognition sequence. H929 cells were treated with varying concentrations of the indicated peptide for 24 h. Cell viability was determined using Topro-3 staining and FACS analysis after drug treatment. IC50 values were generated from linear regressions generated from the dose response curves (n=mean of 3 independent experiments).
Using combinatorial peptide libraries and a functional binding assay, several peptides have been identified that inhibited α2β1 and α6β1 integrin mediated adhesion of prostate cancer cells to fibronectin, laminin and collagen IV.^1 They identified an all D-amino acid containing peptide referred as HYD1 ([…]) (SEQ ID NO:278) that blocks binding of epithelial prostate carcinoma cells to extracellular matrix components.^2,3 Hazlehurst and co-workers have truncated the N- and C-termini and alanine scan studies identified MVISW (SEQ ID NO:279) as the likely core region of linear D-HYD1 required for biological activity. […] The pentapeptide (KLKLK) (SEQ ID NO:27) was selected as the non-recognition strand to improve the solubility. N- to C-terminus cyclization of linear peptides was done to restrict the number of conformations available to the linear peptide which increases the affinity of the cyclized peptide for its target when the constraint stabilizes the bound conformation of the peptide. We synthesized cyclic D-HYD1 using a novel methylsulfonamide aminoethyl glycine linker T1 that connects two anti-parallel strands. […] The inverso- (peptide 2, Table 4) and partially modified retro-inverso (PMRI) (peptide 10) pentapeptide sequences of the recognition strand of cyclic III (Integrin Interaction Inhibitors also known as cyclic L-HYD1) peptide analogs were subsequently investigated for their potential to block beta integrin mediated cell adhesion. The retro-inverso design of biologically active peptides is a well-known strategy to design all D-amino acid peptides from potentially bioactive all L-peptide sequences with increased stability^4-7.
A colony forming assay was used to compare induced cell death in H929 multiple myeloma cells. Cells were treated with integrin interaction inhibitors, shown in FIG. 5 and Table 4, and cell death was measured following 24 hour peptide treatment by TOPRO-3 staining and FACS analysis.

Where two headings read alike, the source gives them in different places. Starred links: 1 amine or outer side, 2 acyl side, 3 side chain; linkers in the order of their positions; H or OH if unused. Positions of bridges follow the written chain, without caps; N, C: chain ends. Non-standard residues stand in square brackets, D forms with d. Residues, ends and D or L forms follow the SMILES beside them. No end group written: not given here. *: point of attachment. dProlinol(O-CH2CO) = O=C(COC[C@H]1CCCN1[*:1])[*:2]; N(2-Aminoethyl)Gly = O=C(CN(CCN[*:3])[*:1])[*:2]; Nle = CCCC[C@H](N)C(=O)O; Ms = CS(=O)(=O)*; Sar = CNCC(=O)O

By IC50 is commonly meant the midpoint of a concentration-inhibition curve.

Take `COc1cccc2c1C(=O)c1c(O)c3c(c(O)c1C2=O)C[C@@](O)(C(=O)CO)C[C@@H]3O[C@H]1C[C@H](N)[C@H](O)[C@H](C)O1` [doxorubicin]: in the data set on U266, the “synergy with integrin interaction inhibitors, in words” value is given as “strong synergism”.

With `CC[C@@H](C)[C@@H](NC(=O)[C@H](N)CCCCN)C(=O)N[C@H](CCCCN)C(=O)N[C@H](CCSC)C(=O)N[C@@H](C(=O)N[C@@H](C(=O)N[C@H](CO)C(=O)N[C@H](Cc1c[nH]c2ccccc12)C(=O)N[C@H](CCCCN)C(=O)NCC(=O)O)[C@H](C)CC)C(C)C` [HYD1], the “cell death in normal PBMC” value in data set [1] was “more potent in MM cells (H929) compared to normal hematopoietic cells”.

As to `CCCC[C@@H]1NC(=O)CN(S(C)(=O)=O)CCNC(=O)[C@H](CCCCN)NC(=O)[C@H](CC(C)C)NC(=O)[C@H](CCCCN)NC(=O)[C@H](CC(C)C)NC(=O)[C@H](CCCCN)NC(=O)COC[C@H]2CCCN2C(=O)[C@H](Cc2c[nH]c3ccccc23)NC(=O)[C@H](C)NC(=O)[C@H](C(C)C)NC(=O)[C@H](C(C)C)NC1=O` [c-HYD1] (Ms-[N(2-Aminoethyl)Gly][Nle]VVAW[dProlinol(O-CH2CO)]KLKLK; lactam 1-C), in the data set on H929 myeloma cells [2], the “tumor growth (circulating Kappa levels)” value is “significantly reduces tumor growth”. The “weight loss and overt signs of toxicity” value in data set [3] is “No weight loss or any overt signs of toxicity were observed”. Also, in the data set with H929 myeloma cells [4] (H929 cells), the “fold more potent than the parent linear HYD1 peptide” value amounted to 30 fold. The 50% inhibitory concentration (IC50) in the data set on H929 myeloma cells [4] (H929 cells, 24 hours, Topro-3 and FACS, read-out: IC50 value in H929 cells) worked out at 1.2 µM.

Consider `CCCC[C@@H]1NC(=O)[C@H](C(C)C)NC(=O)[C@H](C(C)C)NC(=O)[C@H](C)NC(=O)[C@H](Cc2c[nH]c3ccccc23)NC(=O)COC[C@H]2CCCN2C(=O)[C@H](CCCCN)NC(=O)CN(C)C(=O)[C@H](CCCCN)NC(=O)CN(C)C(=O)[C@H](CCCCN)NC(=O)COC[C@H]2CCCN2C1=O` [Peptide 23, KXKXKT3WAVVN*T3] (cyclo(K[Sar]K[Sar]K[dProlinol(O-CH2CO)]WAVV[Nle][dProlinol(O-CH2CO)])), for which, in the data set on H929 myeloma cells [4], the “bioactivity of cyclic III peptide analogs, in words” value is “poor bioactivity”.

As to “NorLeuVVAW: cyclic compound combining both modifications, recognition strand NorLeuVVAW (SEQ ID NO:41) ([Nle]VVAW; also: cyclic, closure not given here)”, the “fold more potent than the parent linear HYD1 peptide” value in the data set on H929 myeloma cells [4] (H929 cells) is reported as 30 fold.

Turning to `CSCC[C@@H]1NC(=O)[C@H](C(C)C)NC(=O)[C@H](C(C)C)NC(=O)[C@H](CO)NC(=O)[C@H](Cc2c[nH]c3ccccc23)NC(=O)CN(S(C)(=O)=O)CCNC(=O)[C@H](CCCCN)NC(=O)[C@H](CC(C)C)NC(=O)[C@H](CCCCN)NC(=O)[C@H](CC(C)C)NC(=O)[C@H](CCCCN)NC(=O)CN(S(C)(=O)=O)CCNC1=O` [III 8], the concentration for half-maximal inhibition (IC50) in the data set on H929 myeloma cells [4] (24 h) came out at 6.7 µM. Moreover, the “change in activity relative to the inverso peptide L-cINTEGRIN INTERACTION INHIBITORS” value in the data set with H929 myeloma cells [4] (H929 cells) is listed as “increases in activity”.

Turning to `CSCC[C@@H]1NC(=O)CN(S(C)(=O)=O)CCNC(=O)[C@H](CCCCN)NC(=O)[C@H](CC(C)C)NC(=O)[C@H](CCCCN)NC(=O)[C@H](CC(C)C)NC(=O)[C@H](CCCCN)NC(=O)CN(S(C)(=O)=O)CCNC(=O)[C@H](C)NC(=O)[C@H](CO)NC(=O)[C@H](C(C)C)NC(=O)[C@H](C(C)C)NC1=O` [III 2], in the data set with H929 myeloma cells [4] (H929 cells), the “change in activity relative to the inverso peptide L-cINTEGRIN INTERACTION INHIBITORS” value is “decrease in activity”.

For `CSCC[C@@H]1NC(=O)CN(S(C)(=O)=O)CCNC(=O)[C@H](CCCCN)NC(=O)[C@H](CC(C)C)NC(=O)[C@H](CCCCN)NC(=O)[C@H](CC(C)C)NC(=O)[C@H](CCCCN)NC(=O)CN(S(C)(=O)=O)CCNC(=O)[C@H](Cc2c[nH]c3ccccc23)NC(=O)[C@H](C)NC(=O)[C@H](C(C)C)NC(=O)[C@H](C(C)C)NC1=O` [Peptide 4, KLKLKT1MVVAWT1], the “bioactivity of cyclic III peptide analogs, in words” value in the data set with H929 myeloma cells [4] was “significantly improved the bioactivity”.

With `CCCC[C@@H]1NC(=O)CN(S(C)(=O)=O)CCNC(=O)[C@H](CCCCN)NC(=O)[C@H](CC(C)C)NC(=O)[C@H](CCCCN)NC(=O)[C@H](CC(C)C)NC(=O)[C@H](CCCCN)NC(=O)CN(S(C)(=O)=O)CCNC(=O)[C@H](Cc2c[nH]c3ccccc23)NC(=O)[C@H](CO)NC(=O)[C@H](C(C)C)NC(=O)[C@H](C(C)C)NC1=O` [Peptide 8, KLKLKT1N*VVSWT1], the “bioactivity of cyclic III peptide analogs, in words” value in the data set on H929 myeloma cells [4] is “further increase of the peptide's bioactivity”.

On to `CSCC[C@@H]1NC(=O)CN(S(C)(=O)=O)CCNC(=O)[C@H](CCCCN)NC(=O)[C@H](CC(C)C)NC(=O)[C@H](CCCCN)NC(=O)[C@H](CC(C)C)NC(=O)[C@H](CCCCN)NC(=O)CN(S(C)(=O)=O)CCNC(=O)[C@H](Cc2c[nH]c3ccccc23)NC(=O)[C@H](CO)NC(=O)[C@H](C(C)C)NC(=O)[C@H](C)NC1=O` [III 5], for which, in the data set on H929 myeloma cells [4] (H929 cells), the “change in activity relative to the inverso peptide L-cINTEGRIN INTERACTION INHIBITORS” value is recorded as “increase in activity”.

In the case of arsenic trioxide, the “synergy with integrin interaction inhibitors, in words” value with U266 was “strong synergism”.

In turn, `CCCC[C@@H]1NC(=O)CN(S(C)(=O)=O)CCNC(=O)[C@H](CCCCN)NC(=O)[C@H](CC(C)C)NC(=O)[C@H](CCCCN)NC(=O)[C@H](CCC(N)=O)NC(=O)[C@H](CCCCN)NC(=O)COC[C@H]2CCCN2C(=O)[C@H](Cc2c[nH]c3ccccc23)NC(=O)[C@H](C)NC(=O)[C@H](C(C)C)NC(=O)[C@H](C(C)C)NC1=O` [Peptide 20, KQKLKT1N*VVAWT3] (Ms-[N(2-Aminoethyl)Gly][Nle]VVAW[dProlinol(O-CH2CO)]KQKLK; lactam 1-C) showed an IC50 in the data set on H929 myeloma cells [4] (24 h) of 18 µM.

As to “NorLeuVVSW: cyclic compound with recognition strand NorLeuVVSW (SEQ ID NO:39), methionine replaced by nor-Leucine ([Nle]VVSW; also: cyclic compound, closure not given here)”, in the data set on H929 myeloma cells [4] (H929 cells), the “fold more potent than the parent linear HYD1 peptide” value came out at 15 fold.

With “MVVAW: cyclic compound with recognition strand MVVAW (SEQ ID NO:35), S replaced by A (also: recognition strand of a larger cyclic compound)”, the “fold more potent than the parent linear HYD1 peptide” value in the data set on H929 myeloma cells [4] (H929 cells) was “approximately 10 fold”.

For `CC(C)C[C@@H]1NC(=O)[C@H](CCCCN)NC(=O)CN(S(C)(=O)=O)CCNC(=O)[C@H](Cc2c[nH]c3ccccc23)NC(=O)[C@H](CO)NC(=O)[C@H](C(C)C)NC(=O)[C@H](C(C)C)NC(=O)[C@H](C)NC(=O)CN(S(C)(=O)=O)CCNC(=O)[C@H](CCCCN)NC(=O)[C@H](CC(C)C)NC(=O)[C@H](CCCCN)NC1=O` [III 6], the “change in activity relative to the inverso peptide L-cINTEGRIN INTERACTION INHIBITORS” value in the data set with H929 myeloma cells [4] (H929 cells) is on record as “decrease in activity”.

Regarding `CCCC[C@@H]1NC(=O)[C@H](C(C)C)NC(=O)[C@H](C(C)C)NC(=O)[C@H](C)NC(=O)[C@H](Cc2c[nH]c3ccccc23)NC(=O)CN(S(C)(=O)=O)CCNC(=O)[C@H](CCCCN)NC(=O)[C@H](CC(C)C)NC(=O)[C@H](CCCCN)NC(=O)[C@H](CC(C)C)NC(=O)[C@H](CCCCN)NC(=O)CN(S(C)(=O)=O)CCNC1=O` [Peptide 11, KLKLKT1WAVVN*T1], 12 µM corresponded to half-maximal inhibition with H929 myeloma cells [4] (24 h) (IC50).

Source of the values: US10059740B2, “Integrin interaction inhibitors for the treatment of cancer” (H. LEE MOFFITT CANCER CENTER AND RESEARCH INSTITUTE, INC., priority 2010, dated 2018).
